In US9561186B2, “Method for improving the bioavailability of low aqueous solubility drugs” (PHARMATHEN S.A., priority 2012, dated 2017):

Test: Solubility of Tadalafil in 2-pyrrolidone
Type: physicochemical
Details: compared with ethanol as solvent
Excerpt: Pyrroplus Manufacturing Process” as described above, overcomes several problems associated with the low solubility of Tadalafil. […] Conversely, using ethanol as solvent requires either increased amount of solvent or small quantity of Tadalafil, which both incommode the preparation of a pharmaceutical composition.

For `CN1CC(=O)N2[C@H](c3ccc4c(c3)OCO4)c3[nH]c4ccccc4c3C[C@@H]2C1=O` [Tadalafil], the “solubility when dissolved in 2-pyrrolidone” value was “its solubility increases and reaches high values”.
